According to patent US20100298141A1, “SUBSTITUTED PYRIDINE N-OXIDE HERBICIDES” (E. I. DU PONT DE NEMOURS AND COMPANY, priority 2007, published 2010):

Legend:
winter wheat (TRZAW) [1] = test: Test J preemergence mixtures of Compound 2 with crop safeners; format: in vivo, Triticum aestivum; design: key to TRZAW Obsd. (observed effect): observed % herbicidal effect; settings: Test J, alone
Text: (§1) Seeds of test plants consisting of winter wheat (TRZAW, Triticum aestivum) and corn (ZEAMD, Zea mays cv. ‘Pioneer 33G26’) were planted into a blend of loam soil and sand and treated preemergence with a directed soil spray using test chemicals formulated in a non-phytotoxic solvent mixture that included a surfactant. […] Balanced fertilizer was applied through the watering system. Treatments consisted of Compound 2 and the above mentioned safeners alone and in combination using a spray volume of 457 L/ha. Each treatment was replicated four times. […] A dash (-) response means no test result. Colby's Equation was used to determine the herbicidal effects expected from the mixtures. Colby's Equation (Colby, S. […] wherein • Pa+b is the percentage effect of the mixture expected from additive contribution of the individual components, • Pa is the observed percentage effect of the first active ingredient at the same use rate as in the mixture, and Pb is the observed percentage effect of the second active ingredient at the same use rate as in the mixture.

corn (ZEAMD) [2] = test: as above; format: in vivo, Zea mays cv. ‘Pioneer 33G26’; design: key to ZEAMD Obsd. (observed effect): observed % herbicidal effect; settings: Test J, alone
Text: as §1

velvetleaf = test: Test A pre-/postemergence greenhouse test; format: in vivo, Abutilon theophrasti; settings: for Velvetleaf plant response rating: 0 to 100 scale
In short: (§2)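 Pots of loam–sand soil sown with the test species are sprayed preemergence on the soil surface; emerged seedlings (1–2 leaves, 2–10 cm) are sprayed postemergence at the same time. The vehicle is a non-phytotoxic solvent mixture with surfactant. Injury is scored visually after ~10 d in greenhouse.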

umbrella sedge = test: Test C flooded paddy test; format: in vivo, Cyperus difformis; settings: Flood
In short: (§3)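 Greenhouse pots flooded to 3 cm above soil at time of treatment received compound via the water, which stayed at that level.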

crabgrass = test: Test A pre-/postemergence greenhouse test; format: in vivo, Digitaria sanguinalis; settings: for Crabgrass, Large plant response rating: 0 to 100 scale
In short: as §2

barnyardgrass [3] = test: Test C flooded paddy test; format: in vivo, Echinochloa crus-galli; settings: Flood
In short: as §3

morningglory = test: Test A pre-/postemergence greenhouse test; format: in vivo, Ipomoea spp.; settings: for Morningglory plant response rating: 500 g ai/ha, 0 to 100 scale
In short: as §2

barnyardgrass [4] = test: Test A pre-/postemergence greenhouse test; format: in vivo, Echinochloa crus-galli; settings: for Barnyardgrass plant response rating: 0 to 100 scale
In short: as §2

giant foxtail = test: Test A pre-/postemergence greenhouse test; format: in vivo, Setaria faberi; settings: for Foxtail, Giant plant response rating: 0 to 100 scale
In short: as §2

rice = test: Test C flooded paddy test; format: in vivo, Oryza sativa; settings: Flood
In short: as §3

wheat = test: Test A pre-/postemergence greenhouse test; format: in vivo, Triticum aestivum; settings: for Wheat plant response rating: 0 to 100 scale
In short: as §2

duck salad = test: Test C flooded paddy test; format: in vivo, Heteranthera limosa; settings: Flood
In short: as §3

redroot pigweed = test: Test A pre-/postemergence greenhouse test; format: in vivo, Amaranthus retroflexus; settings: for Pigweed plant response rating: 0 to 100 scale
In short: as §2

corn = test: Test A pre-/postemergence greenhouse test; format: in vivo, Zea mays; settings: for Corn plant response rating: 0 to 100 scale
In short: as §2

giant foxtail (SETFA) = test: Test H preemergence mixtures of compound 2 with crop safeners; format: in vivo, Setaria faberi; design: key to SETFA Obsd. (observed effect): observed % effect, visually evaluated vs controls; settings: Test H, alone
Text: (§4) Seeds of test plants consisting of winter wheat (TRZAW, Triticum aestivum), corn (ZEAMD, Zea mays cv. ‘Pioneer 33G26’), giant foxtail (SETFA, Setaria faberi), and Italian ryegrass (LOLMU, Lolium multiflorum) were planted into a blend of loam soil and sand and treated preemergence with a directed soil spray using test chemicals formulated in a non-phytotoxic solvent mixture that included a surfactant. Seeds of small-seeded species were planted about 1 cm deep; larger seeds were planted about 2.5 cm deep. […] Balanced fertilizer was applied through the watering system. Treatments consisted of Compound 2 and the above mentioned safeners alone and in combination using a spray volume of 457 L/ha. Each treatment was replicated four times. Treated plants and controls were maintained in a greenhouse for 14 to 21 days, after which time all species were compared to controls and visually evaluated. […] A dash (-) response means no test result. Colby's Equation was used to determine the herbicidal effects expected from the mixtures. Colby's Equation (Colby, S. […] wherein • Pa+b is the percentage effect of the mixture expected from additive contribution of the individual components, • Pa is the observed percentage effect of the first active ingredient at the same use rate as in the mixture, and • Pb is the observed percentage effect of the second active ingredient at the same use rate as in the mixture.

corn (ZEAMD) [5] = test: as above; format: in vivo, Zea mays cv. ‘Pioneer 33G26’; design: key to ZEAMD Obsd. (observed effect): observed % effect, visually evaluated vs controls; settings: Test H, alone
Text: as §4

Italian ryegrass (LOLMU) = test: as above; format: in vivo, Lolium multiflorum; design: key to LOLMU Obsd. (observed effect): observed % effect, visually evaluated vs controls; settings: Test H, alone
Text: as §4

winter wheat (TRZAW) [6] = test: as above; format: in vivo, Triticum aestivum; design: key to TRZAW Obsd. (observed effect): observed % effect, visually evaluated vs controls; settings: Test H, alone
Text: as §4

[7] = Postemergence, 125 g ai/ha, 0 to 100 scale where 0 is no effect and 100 is complete control
[8] = Postemergence, 500 g ai/ha, 0 is no effect, 100 is complete control
[9] = Preemergence, 125 g ai/ha, 0 no effect, 100 complete control
[10] = Preemergence, 500 g ai/ha, 0 no effect, 100 complete control
[11] = 31 g ai/ha, scale 0 to 100 (0 no effect, 100 complete control)
[12] = 62 g ai/ha, scale 0 to 100 (0 no effect, 100 complete control)
[13] = 125 g ai/ha, scale 0 to 100, 0 no effect, 100 complete control, 13 to 15 days
[14] = 250 g ai/ha, scale 0 to 100, 0 no effect, 100 complete control, 13 to 15 days

CC(C)(C)c1ccc(C(=O)O)cc1 [4-t-butyl benzoic acid]
TRZAW Obsd. (observed effect) (winter wheat (TRZAW) [1]; 8 g a.i./ha): 0
TRZAW Obsd. (observed effect) (winter wheat (TRZAW) [1]; 31 g a.i./ha): 0
TRZAW Obsd. (observed effect) (winter wheat (TRZAW) [1]; 125 g a.i./ha): 0
TRZAW Obsd. (observed effect) (winter wheat (TRZAW) [1]; 500 g a.i./ha): 0
ZEAMD Obsd. (observed effect) (corn (ZEAMD) [2]; 8 g a.i./ha): 0
ZEAMD Obsd. (observed effect) (corn (ZEAMD) [2]; 31 g a.i./ha): 0
ZEAMD Obsd. (observed effect) (corn (ZEAMD) [2]; 125 g a.i./ha): 0
ZEAMD Obsd. (observed effect) (corn (ZEAMD) [2]; 500 g a.i./ha): 0

Cc1ccc[n+]([O-])c1S(=O)(=O)Cc1c(C(F)(F)F)nn(C)c1OC(F)F [Compound 113]
Plant response rating, Velvetleaf (velvetleaf; [7]): 40
Velvetleaf plant response rating (velvetleaf; [8]): 50
Velvetleaf plant response rating (velvetleaf; [9]): 0
Velvetleaf plant response rating (velvetleaf; [10]): 40
Plant response rating, Sedge, Umbrella (umbrella sedge; [11]): 0
Plant response rating, Sedge, Umbrella (umbrella sedge; [12]): 0
Plant response rating, Sedge, Umbrella (umbrella sedge; [13]): 0
Plant response rating, Sedge, Umbrella (umbrella sedge; [14]): 0
Plant response rating, Crabgrass, Large (crabgrass; [7]): 60
Crabgrass, Large plant response rating (crabgrass; [8]): 80
Crabgrass, Large plant response rating (crabgrass; [9]): 80
Crabgrass, Large plant response rating (crabgrass; [10]): 90
Plant response rating, Barnyardgrass (barnyardgrass [3]; [11]): 0
Plant response rating, Barnyardgrass (barnyardgrass [3]; [12]): 0
Plant response rating, Barnyardgrass (barnyardgrass [3]; [13]): 0
Plant response rating, Barnyardgrass (barnyardgrass [3]; [14]): 0
Plant response rating, Morningglory (morningglory; [7]): 30
Morningglory plant response rating (morningglory; Postemergence, 0 is no effect, 100 is complete control): 60
Morningglory plant response rating (morningglory; Preemergence, 0 no effect, 100 complete control): 80
Plant response rating, Barnyardgrass (barnyardgrass [4]; [7]): 70
Barnyardgrass plant response rating (barnyardgrass [4]; [8]): 80
Barnyardgrass plant response rating (barnyardgrass [4]; [9]): 70
Barnyardgrass plant response rating (barnyardgrass [4]; [10]): 100
Plant response rating, Foxtail, Giant (giant foxtail; [7]): 60
Foxtail, Giant plant response rating (giant foxtail; [8]): 80
Foxtail, Giant plant response rating (giant foxtail; [9]): 80
Foxtail, Giant plant response rating (giant foxtail; [10]): 90
Plant response rating, Rice (rice; [11]): 0
Plant response rating, Rice (rice; [12]): 0
Plant response rating, Rice (rice; [13]): 0
Plant response rating, Rice (rice; [14]): 0
Plant response rating, Wheat (wheat; [7]): 40
Wheat plant response rating (wheat; [8]): 60
Wheat plant response rating (wheat; [9]): 0
Wheat plant response rating (wheat; [10]): 60
Plant response rating, Ducksalad (duck salad; [11]): 0
Plant response rating, Ducksalad (duck salad; [12]): 0
Plant response rating, Ducksalad (duck salad; [13]): 0
Plant response rating, Ducksalad (duck salad; [14]): 0
Plant response rating, Pigweed (redroot pigweed; [7]): 10
Pigweed plant response rating (redroot pigweed; [8]): 50
Pigweed plant response rating (redroot pigweed; [9]): 10
Pigweed plant response rating (redroot pigweed; [10]): 100
Plant response rating, Corn (corn; [7]): 0
Corn plant response rating (corn; [8]): 60
Corn plant response rating (corn; [9]): 0
Corn plant response rating (corn; [10]): 80

CCOC(=O)C1=NN(c2ccc(Cl)cc2Cl)C(C)(C(=O)OCC)C1 (stereo not shown) [mefenpyr-diethyl]
SETFA Obsd. (observed effect) (giant foxtail (SETFA); 8 g a.i./ha): 0
SETFA Obsd. (observed effect) (giant foxtail (SETFA); 16 g a.i./ha): 0
SETFA Obsd. (observed effect) (giant foxtail (SETFA); 31 g a.i./ha): 1
ZEAMD Obsd. (observed effect) (corn (ZEAMD) [5]; 8 g a.i./ha): 0
ZEAMD Obsd. (observed effect) (corn (ZEAMD) [5]; 16 g a.i./ha): 0
ZEAMD Obsd. (observed effect) (corn (ZEAMD) [5]; 31 g a.i./ha): 0
LOLMU Obsd. (observed effect) (Italian ryegrass (LOLMU); 8 g a.i./ha): 3
LOLMU Obsd. (observed effect) (Italian ryegrass (LOLMU); 16 g a.i./ha): 0
LOLMU Obsd. (observed effect) (Italian ryegrass (LOLMU); 31 g a.i./ha): 0
TRZAW Obsd. (observed effect) (winter wheat (TRZAW) [6]; 8 g a.i./ha): 0
TRZAW Obsd. (observed effect) (winter wheat (TRZAW) [6]; 16 g a.i./ha): 0
TRZAW Obsd. (observed effect) (winter wheat (TRZAW) [6]; 31 g a.i./ha): 0

O=C1OC(=O)c2cccc3cccc1c23 [naphthalic anhydride, 1,8-naphthalic anhydride]
SETFA Obsd. (observed effect) (giant foxtail (SETFA); 8 g a.i./ha): 0
SETFA Obsd. (observed effect) (giant foxtail (SETFA); 16 g a.i./ha): 0
SETFA Obsd. (observed effect) (giant foxtail (SETFA); 31 g a.i./ha): 0
ZEAMD Obsd. (observed effect) (corn (ZEAMD) [5]; 8 g a.i./ha): 0
ZEAMD Obsd. (observed effect) (corn (ZEAMD) [5]; 16 g a.i./ha): 0
ZEAMD Obsd. (observed effect) (corn (ZEAMD) [5]; 31 g a.i./ha): 0
LOLMU Obsd. (observed effect) (Italian ryegrass (LOLMU); 8 g a.i./ha): 13
LOLMU Obsd. (observed effect) (Italian ryegrass (LOLMU); 16 g a.i./ha): 0
LOLMU Obsd. (observed effect) (Italian ryegrass (LOLMU); 31 g a.i./ha): 0
TRZAW Obsd. (observed effect) (winter wheat (TRZAW) [6]; 8 g a.i./ha): 3
TRZAW Obsd. (observed effect) (winter wheat (TRZAW) [6]; 16 g a.i./ha): 0
TRZAW Obsd. (observed effect) (winter wheat (TRZAW) [6]; 31 g a.i./ha): 0
